Reference: US6420174B1, “Method of producing organogenetic tissue from a plant of the genus Mentha” (Council of Scientific and Industrial Research, priority 2000, dated 2002)

Tests used:
[1] = tested on: regenerated shoots of Mentha arvensis; assay: Response of regenerated shoots in different media; assay type: cell-based; conditions: Mentha arvensis L. cv. Himalaya, 7 days
Description: (§1) The plant variety used in these experiments was cv. Himalaya (U.S. Pat No. PP10935) of Mentha arvensis L. (2n=96). The suckers of M. arvensis L. cv. Himalaya for multiplication of the plant material and future experimentation were obtained from CIMAP's gene bank. For callus production, the explant material was collected from the field grown plants and surface sterilized by washing sequentially with 2% detergent, distilled water containing a few drops of Savlon (Johnson and Johnson, India), 0 1% acidified mercuric chloride and autoclaved distilled water before inoculation. About 1 cm long internode pieces were inoculated in the Murashige and Skoog medium (Murashige T, Skoog F; 1962. A revised medium for rapid growth and bioassay with tobacco tissue cultures. Physiol Planta, 15:473-497) supplemented with 0.2 μg ml^−1 of an auxin (NAA, 1-napthalene acetic acid) and 5 μg ml^−1 of a cytokinin (BAP, benzyl aminopurine). […]
(§2) In the next phase, the callus was sub cultured in three different media: i) the basal medium MSO containing only the vitamins and minerals without any growth hormones; ii) MSA-2 medium which is MSO with 0.2 μg ml^−1 concentration of NAA and 5 μg ml^−1 of a cytokinin BAP; and iii) MT-80 medium which is MSO with only 80 μg ml^−1 menthol. […] The response was recorded every 24 hours over a period of one week and then weekly upto one month. […]

Mentha arvensis callus = assay: Shooting response of callus in different media; assay type: cell-based, Mentha arvensis L. cv. Himalaya
Description: as §1, §2

Root pieces = assay: Response of other explants in different media: root pieces; assay type: cell-based, Mentha arvensis
Procedure: (§3) In the next phase, the callus was sub cultured in three different media: i) the basal medium MSO containing only the vitamins and minerals without any growth hormones; ii) MSA-2 medium which is MSO with 0.2 μg ml^−1 concentration of NAA and 5 μg ml^−1 of a cytokinin BAP; and iii) MT-80 medium which is MSO with only 80 μg ml^−1 menthol. On each kind of these media, an independent callus (50 mg ) or 5 independently regenerated shoots were inoculated per flask in 5 replications each. The experiment was conducted in the completely randomized design (CRD) fashion. Cultures were incubated and maintained at 25±2° C. and 400-600 lux light intensity with 16-hour photoperiod. The response was recorded every 24 hours over a period of one week and then weekly upto one month.
(§4) At this stage, the applicants wanted to know whether any other parts of the plant (explants) show similar response as callus and lead to direct regeneration. In the same experimental design we inoculated different parts of the plant in different media and the observations were recorded after 7 and 15 days.

Internodes = assay: Response of other explants in different media: internodes; assay type: cell-based, Mentha arvensis; conditions: 7 days
Procedure: as §3, §4

regenerated shoots = assay: Characteristics and growth of regenerated shoots (leaf dimensions); assay type: cell-based, Mentha arvensis; conditions: medium containing 80 μg ml^−1 of menthol
Procedure: as §3
The leaves were also larger in the shoots regenerated on the medium containing 80 μg ml^−1 of menthol (Table 4).

[2] = tested on: in vitro raised somaclones (shootlets); assay: Earlier screening of in vitro raised somaclones in medium containing toxic concentrations of menthol; assay type: cell-based, Mentha arvensis; conditions: above 70 μg ml^−1 in the medium
Procedure: The applicants earlier developed a protocol for screening high menthol yielding plants by inoculating the in vitro raised somaclones in medium containing toxic concentrations of menthol in the tissue culture medium (Patent pending). In this procedure, screening of 2850 variants yielded 30 clones surviving 70 μg ml^−1 of menthol concentration in the medium out of which only 5 stable clones could be isolated which were of high menthol content type in comparison to the parent variety ‘Himalaya’ (U.S. Pat No. PP 10935). […] At this point, the applicants planned experiments to subject the callus directly to menthol selection instead of the regenerated shoots to save on time, space and labour. The logic was to isolate the tolerant cell lines if any, growing from this callus later.

CC1CCC(C(C)C)C(O)C1 (stereo not shown) [menthol]
Toxic concentration at which the regenerated shoots die [1]: ≥ 80 µg/mL | Time to visible shoot induction from callus (Mentha arvensis callus; MSO medium containing menthol 80 μg ml^−1): 7 to 10 days | Response of transferred callus pieces (Mentha arvensis callus; text of Example 2, up to 21 days): induced shoot regeneration | Response of root pieces (Root pieces; MSO + 60 ppm menthol, 7 days): No change | Response of root pieces (Root pieces; MSO + 70 ppm menthol, 7 days): No change | Response of root pieces (Root pieces; MSO + 70 ppm menthol, 15 days): Wilting started | Response of root pieces (Root pieces; MSO + 80 ppm menthol, 7 days): Wilting | Response of root pieces (Root pieces; MSO + 80 ppm menthol, 15 days): Wilting | Response of internodes (Internodes; MSO + 60 ppm menthol): Green | Response of internodes (Internodes; MSO + 70 ppm menthol): Green | Response of internodes (Internodes; MSO + 80 ppm menthol): Wilting | Growth of menthol-induced shoots compared to shoots growing on other media (regenerated shoots): more vigorous in growth | Effect on shootlets of increasing menthol concentration further [2]: killed all the shootlets
